# Measurements reported in ChEMBL document CHEMBL1130778, “The synthesis and evaluation of cyclic ureas as HIV protease inhibitors: modifications of the P1/P1' residues” (Bioorg Med Chem Lett, 1998).
# What was measured:
# [1] = tested on: Human immunodeficiency virus 1; assay: Whole cell antiviral activity.; assay type: functional
# [2] = target: Human immunodeficiency virus type 1 protease (Human immunodeficiency virus 1, UniProt Q72874); assay: HIV protease inhibition.
SMILES,IC90 [1] [nM],Ki [2] [nM]
O=C1N(Cc2cccc(-c3cc[nH]n3)c2)[C@H](Cc2ccccc2)[C@H](O)[C@@H](O)[C@@H](Cc2ccccc2)N1Cc1cccc(-c2cc[nH]n2)c1,56,
Nc1cccc(CN2C(=O)N(Cc3cccc(N)c3)[C@H](Cc3ccccc3)[C@H](O)[C@@H](O)[C@H]2Cc2ccccc2)c1 [MOZENAVIR],126,
O=C1N(Cc2ccccc2)[C@H](Cc2ccc(O)cc2)[C@H](O)[C@@H](O)[C@@H](Cc2ccc(O)cc2)N1Cc1ccccc1,184,
CNCCOc1ccc(C[C@@H]2[C@H](O)[C@@H](O)[C@@H](Cc3ccc(OCCNC)cc3)N(Cc3ccccc3)C(=O)N2Cc2ccccc2)cc1,800,1.6
CN(C)CCOc1ccc(C[C@@H]2[C@H](O)[C@@H](O)[C@@H](Cc3ccc(OCCN(C)C)cc3)N(Cc3cccc(-c4cc[nH]n4)c3)C(=O)N2Cc2cccc(-c3cc[nH]n3)c2)cc1,5400,0.061
O=C1N(Cc2ccccc2)[C@H](Cc2ccccc2)[C@H](O)[C@@H](O)[C@@H](Cc2ccccc2)N1Cc1ccccc1,790,
COc1ccc(C[C@@H]2[C@H](O)[C@@H](O)[C@@H](Cc3ccc(OC)cc3)N(Cc3cccc(-c4cc[nH]n4)c3)C(=O)N2Cc2cccc(-c3cc[nH]n3)c2)cc1,10,0.078
O=C1N(Cc2ccccc2)[C@H](Cc2ccc(OCCO)cc2)[C@H](O)[C@@H](O)[C@@H](Cc2ccc(OCCO)cc2)N1Cc1ccccc1,78,0.76
O=C1N(Cc2cccc(-c3cc[nH]n3)c2)[C@H](Cc2ccc(OCc3cccnc3)cc2)[C@H](O)[C@@H](O)[C@@H](Cc2ccc(OCc3cccnc3)cc2)N1Cc1cccc(-c2cc[nH]n2)c1,32,0.059
O=C1N(Cc2ccccc2)[C@H](Cc2ccc(OCCN3CCOCC3)cc2)[C@H](O)[C@@H](O)[C@@H](Cc2ccc(OCCN3CCOCC3)cc2)N1Cc1ccccc1,230,5.9
O=C1N(Cc2ccccc2)[C@H](Cc2ccc(OCc3ccncc3)cc2)[C@H](O)[C@@H](O)[C@@H](Cc2ccc(OCc3ccncc3)cc2)N1Cc1ccccc1,100,0.84
COc1ccc(C[C@@H]2[C@H](O)[C@@H](O)[C@@H](Cc3ccc(OC)cc3)N(Cc3ccccc3)C(=O)N2Cc2ccccc2)cc1,600,
O=C1N(Cc2cccc(-c3cc[nH]n3)c2)[C@H](Cc2ccc(OCCN3CCOCC3)cc2)[C@H](O)[C@@H](O)[C@@H](Cc2ccc(OCCN3CCOCC3)cc2)N1Cc1cccc(-c2cc[nH]n2)c1,1030,0.13
O=C1N(Cc2cccc(-c3cc[nH]n3)c2)[C@H](Cc2ccc(OCCO)cc2)[C@H](O)[C@@H](O)[C@@H](Cc2ccc(OCCO)cc2)N1Cc1cccc(-c2cc[nH]n2)c1,462,0.059
O=C1N(Cc2cccc(-c3cc[nH]n3)c2)[C@H](Cc2ccc(OCc3ccncc3)cc2)[C@H](O)[C@@H](O)[C@@H](Cc2ccc(OCc3ccncc3)cc2)N1Cc1cccc(-c2cc[nH]n2)c1,18,0.071
O=C1N(Cc2cccc(-c3cc[nH]n3)c2)[C@H](Cc2ccc(O)cc2)[C@H](O)[C@@H](O)[C@@H](Cc2ccc(O)cc2)N1Cc1cccc(-c2cc[nH]n2)c1,1340,0.016
O=C1N(Cc2ccc(CO)cc2)[C@H](Cc2ccccc2)[C@H](O)[C@@H](O)[C@@H](Cc2ccccc2)N1Cc1ccc(CO)cc1 [DMP-323],91,0.29
